Values of other authors as cited in US12133847B2, “Pharmaceutical composition and preparation method therefor” (Shenzhen Pharmacin Co., Ltd., priority 2014, dated 2024).
Where a name gives a salt, the structure may show the parent alone. Read-outs that look alike come from different tables or passages of the source.

How the values were obtained:
[1] = in vivo

Row | SMILES | Solubility (in acidic media) | Solubility (in neutral and alkaline media) | Solubility (physiological conditions, in the intestine near pH 7.0) | Oral bioavailability [1]
1 | CCCCCCOC(=O)NC(=N)c1ccc(NCc2nc3cc(C(=O)N(CCC(=O)OCC)c4ccccn4)ccc3n2C)cc1 [Dabigatran etexilate mesylate, dabigatran etexilate mesylate] | high solubility | very poor solubility | substantially insoluble | –
2 | [H]/N=C(/N)c1ccc(NCc2nc3cc(C(=O)N(CCC(=O)O)c4ccccn4)ccc3n2C)cc1 [dabigatran] | – | – | – | very low oral bioavailability
